For this series, the target named is T1, Solute carrier family 22 member 6 (Homo sapiens, UniProt Q4U2R8).
T1 sequence (Q4U2R8 whole entry): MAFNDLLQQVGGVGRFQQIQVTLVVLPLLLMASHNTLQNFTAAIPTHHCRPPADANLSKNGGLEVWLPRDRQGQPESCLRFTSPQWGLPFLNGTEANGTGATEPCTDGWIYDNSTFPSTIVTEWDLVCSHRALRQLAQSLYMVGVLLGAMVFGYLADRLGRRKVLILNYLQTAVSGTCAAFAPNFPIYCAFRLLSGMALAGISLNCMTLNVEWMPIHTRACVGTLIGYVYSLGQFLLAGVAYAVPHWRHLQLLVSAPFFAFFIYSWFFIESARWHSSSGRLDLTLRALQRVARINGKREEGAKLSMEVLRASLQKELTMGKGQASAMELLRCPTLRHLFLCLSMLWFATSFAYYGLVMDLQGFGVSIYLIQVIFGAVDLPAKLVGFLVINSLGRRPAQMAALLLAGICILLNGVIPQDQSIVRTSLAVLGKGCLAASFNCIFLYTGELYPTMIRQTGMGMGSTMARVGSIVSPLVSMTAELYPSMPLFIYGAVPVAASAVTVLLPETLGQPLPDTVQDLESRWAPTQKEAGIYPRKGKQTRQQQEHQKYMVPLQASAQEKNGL
The experiment in a line: TP_TRANSPORTER: uptake in OAT1-expressing CHO cells. It counts as functional, cell-based. Particulars: hamster.

On to `CC(C(=O)O)c1cccc(C(=O)c2ccccc2)c1` (stereo unspecified) [KETOPROFEN], for which the Activity result is “is not a substrate [-]”.
